Experimental findings from patent publication US20240365783A1, “HERBICIDAL MALONAMIDES” (BASF SE, priority 2021, published 2024) are described below.

What all share (type): in vivo
For assay [1], the system named is Abutilon theophrasti (ABUTH). Kind of assay: greenhouse pre-emergence herbicidal test, ABUTH. To be noted: pre-emergence method, scale from 0 to 100. An excerpt:
(§1) The culture containers used were plastic flowerpots containing loamy sand with approximately 3.0% of humus as the substrate. The seeds of the test plants were sown separately for each species.
(§2) For the pre-emergence treatment, the active ingredients, which had been suspended or emulsified in water, were applied directly after sowing by means of finely distributing nozzles. The containers were irrigated gently to promote germination and growth and subsequently covered with transparent plastic hoods until the test plants had rooted. This cover caused uniform germination of the test plants, unless this had been impaired by the active ingredients.
(§3) Depending on the species, the test plants were kept at 10-25° C. or 20-35° C., respectively.
(§4) The test period extended over 2 to 4 weeks. During this time, the test plants were tended, and their response to the individual treatments was evaluated.
(§5) Evaluation was carried out using a scale from 0 to 100. 100 means no emergence of the test plants, or complete destruction of at least the aerial moieties, and 0 means no damage, or normal course of growth. A good herbicidal activity is given at values of 70 to <90 and a very good herbicidal activity is given at values of 90 to 100.
(§6) The test plants used in the greenhouse experiments were of the following species: […]

Assay [2] relates to Digitaria sanguinalis (DIGSA). Kind of assay: greenhouse pre-emergence herbicidal test, DIGSA. Conditions: pre-emergence method, application rate 0.250 kg/ha, scale from 0 to 100.
From the text: as §1, §2, §3, §4, §5, §6

Assay [3] relates to Apera spica-venti (APESV). Briefly: greenhouse pre-emergence herbicidal test, APESV. To be noted: pre-emergence method, application rate 0.500 kg/ha, scale from 0 to 100.
From the text: as §1, §2, §3, §4, §5, §6

Assay [4] has as its system Alopercurus myosuroides (ALOMY). Kind of assay: greenhouse post-emergence herbicidal test, ALOMY. To be noted: post-emergence method, application rate 0.500 kg/ha, scale from 0 to 100.
From the text: as §1
(§7) For the post-emergence treatment, the test plants were first grown to a height of 3 to 15 cm, depending on the plant habit, and only then treated with the active ingredients which had been suspended or emulsified in water. For this purpose, the test plants were either sown directly and grown in the same containers, or they were first grown separately as seedlings and transplanted into the test containers a few days prior to treatment.
as §3, §4, §5, §6

A further assay has as its system Avena fatua (AVEFA). Kind of assay: greenhouse post-emergence herbicidal test, AVEFA. To be noted: post-emergence method, application rate 0.500 kg/ha, scale from 0 to 100.
From the text: as §1, §7, §3, §4, §5, §6

In the next assay the test system is Setaria viridis (SETVI). Briefly: greenhouse post-emergence herbicidal test, SETVI. To be noted: post-emergence method, application rate 0.500 kg/ha, scale from 0 to 100.
From the text: as §1, §7, §3, §4, §5, §6

Assay [5] concerns Abutilon theophrasti (ABUTH). Briefly: greenhouse post-emergence herbicidal test, ABUTH. Conditions: post-emergence method, application rate 0.250 kg/ha, scale from 0 to 100.
From the text: as §1, §7, §3, §4, §5, §6

Assay [6] relates to Lolium multiflorum (LOLMU). Briefly: greenhouse pre-emergence herbicidal test, LOLMU. To be noted: pre-emergence method, application rate 0.250 kg/ha, scale from 0 to 100.
From the text: as §1, §2, §3, §4, §5, §6

Take `CCc1cccc(NC(=O)C(C)(C)C(=O)NC(C)CCC(=O)OC)c1` (stereo not drawn) [Compound 1.19]: the “herbicidal activity against ABUTH” value in assay [1] (application rate 0.250 kg/ha) is given as “good (A good herbicidal activity is given at values of 70 to <90)”.

As to `CC(C)(C(=O)Nc1cccc(OC(F)(F)F)c1)C(=O)N[C@H]1C=C[C@@H](C(=O)O)C1` (relative stereo) [Compound 1.79], the “herbicidal activity against DIGSA” value in assay [2] is on record as “good (A good herbicidal activity is given at values of 70 to <90)”.

`COC(=O)CC(C)NC(=O)C(C)(C)C(=O)Nc1cc(Cl)cc(Cl)c1` (stereo not drawn) [Compound 1.1]: the “herbicidal activity against ABUTH” value in assay [1] (application rate 0.500 kg/ha) is “good (A good herbicidal activity is given at values of 70 to <90)”. The “herbicidal activity against APESV” value in assay [3] is on record as “very good (a very good herbicidal activity is given at values of 90 to 100)”. The “herbicidal activity against ALOMY” value in assay [4] was “very good (a very good herbicidal activity is given at values of 90 to 100)”. In addition, the “herbicidal activity against AVEFA” value in the assay on Avena fatua (AVEFA) is listed as “very good (a very good herbicidal activity is given at values of 90 to 100)”. Moreover, the “herbicidal activity against SETVI” value with Setaria viridis (SETVI) is listed as “very good (a very good herbicidal activity is given at values of 90 to 100)”. As for `COC(=O)C1C=CC(NC(=O)C(C)(C)C(=O)Nc2cccc(I)c2)C1` (stereo not drawn) [Compound 1.4], the “herbicidal activity against ABUTH” value in assay [5] is given as “good (A good herbicidal activity is given at values of 70 to <90)”.

Regarding `CC(C)(C(=O)Nc1cc(Cl)cc(Cl)c1)C(=O)N[C@H]1C=C[C@@H](C(=O)O)C1` (relative stereo) [Compound 1.80], the “herbicidal activity against LOLMU” value in assay [6] is on record as “good (A good herbicidal activity is given at values of 70 to <90)”.
